Laboratory results from publication PMC12209172, “Poly(ADP-ribose)polymerase 2 is zinc-dependent enzyme and nucleosome reorganizer” (Cellular and Molecular Life Sciences: CMLS, 2025).
Several values for one entry are separate records, joined by “and”; a condition that tells them apart may be missing. Equal values may be shown once.

Columns and labels:
[1] = molecular target: T1, PARP2-nucleosome complexes (Mus musculus, UniProt O88554); assay: spFRET microscopy in solution of nucleosomes and PARP2-nucleosome complexes; conditions: for EPR centre of the structural state of nucleosomes: PARP2 plus 0.3 mM Zn2+
T1 construct: Recombinant mouse full-length PARP2 was obtained in the baculovirus expression system; made in house; host or cells: PARP2: Sf9 insect cells (baculovirus), gift of Prof; O. Lavrik; nucleosomes assembled in house
Method: In the study of nucleosome-PARP2 interactions, nucleosomes (1-2 nM) were incubated with PARP2 (12.5-200 nM) in buffer A (50 mM Tris-HCl pH 7.5; 40 mM NaCl; 0.5 mM β-mercaptoethanol (β-ME); 0.1% NP40) at 25 °C for 30 min. When indicated, buffer A was supplemented with 50 μM - 5 mM ZnCl2, 5 mM CaCl2 or 5 mM MgCl2. […] […] measurements in solution were performed as described previously. Each measured single nucleosome was characterized by FRET between Cy3 and Cy5 labels calculated as a proximity ratio (EPR):1 [drawing 1] Where I3 and I5 are fluorescence intensities of Cy3 and Cy5, respectively, and coefficients 0.19 and 0.81 provide correction for the spectral cross-talk between Cy3 and Cy5 detection channels. EPR is a FRET efficiency not corrected for quantum yields of labels and an instrumentation factor. Relative frequency distributions of nucleosomes by EPR values, i.e. EPR profiles, (2000-5000 nucleosomes per experiment; 3 independent experiments) were plotted and further analyzed as a superposition of several normal (Gaussian) distributions for nucleosomes or nucleosome-PARP2 complexes. Since nucleosomes tend to aggregate when PARP2 is added (especially at high concentrations), treatment of signals measured from nucleosomes and their complexes included mandatory rejection of signals from any aggregates that are clearly recognized due to their slow diffusion rate and/or abnormally high fluorescence intensity.

PARP2 = PARP2 (Mus musculus, UniProt O88554); assay: Circular dichroism spectroscopy of PARP2 (BeStSel secondary structure analysis); set-up: Recombinant mouse full-length PARP2 was obtained in the baculovirus expression system; made in house; host or cells: Sf9 insect cells (baculovirus); gift of Prof; O. Lavrik; conditions: 0.3 mM Zn2+, 0.7 mM Ca2+ or 0.7 mM Mg2+
Method: (§1) CD spectra of proteins were recorded within the 190-250 nm spectral range with 0.2 nm step using Jasco-810 spectrophotometer (Jasco, Japan) and the quartz […]® cuvette of 0.1 mm thickness (Hellma, Germany. Secondary structure analysis was performed using BeStSel webserver. To improve the reliability of the analysis, the content of canonical secondary structures of various types was predicted for 3-6 independent measurements, and the values were averaged. The statistical significance of the secondary structure difference was determined using the multiple t-test.

WGR domain of PARP2 = molecular target: T2, WGR domain of PARP2 (Homo sapiens, UniProt Q9UGN5); assay: Circular dichroism spectroscopy of the WGR domain (BeStSel secondary structure analysis); set-up: content of a-helix in the WGR domain / content of b-sheet in the WGR domain / content of turn in the WGR domain / content of random coil in the WGR domain: unit not given here
T2 construct: WGR domain of PARP2 (residues 77–220) into pET-15b-TEV expression vector; 6xHis (pET-15b-TEV) (N, cleaved yes); made in house; host or cells: Escherichia coli Rosetta2 (DE3) pLysS
Method: as §1

[2] = 0.5 mM ion, independent measurements

T2 sequence (Q9UGN5 77-220): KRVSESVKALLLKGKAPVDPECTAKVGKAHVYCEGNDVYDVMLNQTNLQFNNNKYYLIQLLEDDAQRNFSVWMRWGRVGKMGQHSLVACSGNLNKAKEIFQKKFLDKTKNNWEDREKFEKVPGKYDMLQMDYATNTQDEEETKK
Sequence of PARP2 (O88554 whole entry): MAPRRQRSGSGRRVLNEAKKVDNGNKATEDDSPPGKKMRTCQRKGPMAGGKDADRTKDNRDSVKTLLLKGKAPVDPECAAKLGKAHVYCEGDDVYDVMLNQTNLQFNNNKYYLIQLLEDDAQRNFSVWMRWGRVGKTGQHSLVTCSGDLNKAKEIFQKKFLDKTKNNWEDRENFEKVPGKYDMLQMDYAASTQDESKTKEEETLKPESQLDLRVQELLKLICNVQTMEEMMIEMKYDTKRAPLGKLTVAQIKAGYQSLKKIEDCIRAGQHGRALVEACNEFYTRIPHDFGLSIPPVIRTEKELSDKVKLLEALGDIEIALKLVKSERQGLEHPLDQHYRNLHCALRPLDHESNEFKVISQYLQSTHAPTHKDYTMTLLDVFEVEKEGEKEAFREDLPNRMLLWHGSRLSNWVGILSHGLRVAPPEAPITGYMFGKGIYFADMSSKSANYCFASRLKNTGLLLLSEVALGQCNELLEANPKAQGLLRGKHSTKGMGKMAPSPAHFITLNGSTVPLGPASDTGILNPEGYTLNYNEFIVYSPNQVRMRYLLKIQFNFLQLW

- effect of ions on the nucleosome structure ([1]; NP nucleosomes without PARP2, 5 mM ions): minimally affect
- EPR centre of the new peak in the EPR profile ([1]; NP nucleosomes, PARP2 plus Zn2+): 0.4
- EPR centre of the structural state of nucleosomes ([1]; Nd nucleosomes): 0.5
- EPR centre of the structural state of nucleosomes ([1]; Nm nucleosomes): 0.4
- Zn2+ concentration above which the structure of PARP2-nucleosome complexes is affected ([1]; PARP2 50 nM, NP nucleosomes): higher than 75 µM
- Zn2+ concentration at which all the complexes are converted to the altered conformation ([1]; PARP2 50 nM, NP nucleosomes): 150 µM
- effect of Zn2+ on the affinity of PARP2 to nucleosomes ([1]; compared with EMSA in the absence of Zn2+): not significantly affected
- effect of ions on the CD spectrum / conformation of PARP2 (PARP2): small conformational changes
- effect of ions on the structure of the WGR domain (CD) (WGR domain of PARP2): significantly changes
- content of b-sheet in the WGR domain (WGR domain of PARP2; [2]): 26.6 and 28 and 25.5 and 34.1 and 29.7
- content of random coil in the WGR domain (WGR domain of PARP2; [2]): 48.2 and 46 and 53.4 and 46.2
- content of turn in the WGR domain (WGR domain of PARP2; [2]): 15.4 and 13.9 and 14.7 and 15.1 and 13.3
Compound: [Cl-].[Cl-].[Zn+2] [Zn2+, ZnCl2]
- effect of ions on the structure of nucleosomes in PARP2-nucleosome complexes ([1]; PARP2 50 nM, Zn2+ 0.3 mM, Ca2+ 5 mM or Mg2+ 5 mM): induce alterations in the structure of PARP2-nucleosome complexes
